Entries after “also recorded” stand apart in the source; their conditions may differ.
How the values were obtained:
Type in all cases: in vivo, human
[1] = test system: absence seizures in patients diagnosed with encephalocele; test: Open label, expanded-access program: absence seizure frequency; conditions: for Seizure frequency, Absence: baseline 6.8
Experimental: (§1) Subjects were required to be on one or more AEDs at stable doses for a minimum of two weeks prior to baseline and to have stable vagus nerve stimulation (VNS) settings and ketogenic diet ratios for a minimum of four weeks prior to baseline.
(§2) A maximum dose of 50 mg/kg/day could be utilised for patients who were tolerating the medication but had not achieved seizure control; these patients had further weekly titration by 5 mg/kg/day.
(§3) Modifications were made to concomitant AEDs as per clinical indication.
(§4) Seizure frequency, intensity, and duration were recorded by caregivers in a diary during a baseline period of at least 28 days. Changes in seizure frequency relative to baseline were calculated after at least 2 weeks and at defined timepoints of treatment.
(§5) Patients may be defined as responders if they had more than 50% reduction in seizure frequency compared to baseline. The percent change in seizure frequency was calculated as follows: […]
(§6) The percent change of seizure frequency may be calculated for any time interval where seizure number has been recorded. For the purpose of this example the percent change of seizure frequency for the end of the treatment period was calculated as follows: […]

[2] = test system: focal seizures with impairment in patients diagnosed with encephalocele; test: Open label, expanded-access program: frequency of focal seizures with impairment; parameters: Seizure frequency, Focal with impairment: unit not given here
Experimental: as §1, §3, §4, §5, §6

[3] = test system: focal seizures with secondary generalisation in patients diagnosed with encephalocele; test: Open label, expanded-access program: frequency of focal seizures with secondary generalisation; conditions: Patient 2, baseline 85.0
Experimental: as §1, §2, §3, §4, §5, §6

[4] = test system: seizures associated with encephalocele; test: Open label, expanded-access program: seizures overall; conditions: two patients
Experimental: as §1, §2, §3, §4, §5, §6

C=C(C)[C@@H]1CCC(C)=C[C@H]1c1c(O)cc(CCCCC)cc1O [CBD, cannabidiol]
Seizure frequency, Absence ([1]; Patient 1, 2 weeks, CBD 15.0 mg/kg/day): 6.0
Seizure frequency, Absence ([1]; Patient 1, 4 weeks, CBD 25.0 mg/kg/day): 8.0
Seizure frequency, Absence ([1]; Patient 1, 8 weeks, CBD 30.0 mg/kg/day): 0
Seizure frequency, Absence ([1]; Patient 1, 12 weeks, CBD 25.0 mg/kg/day): 0
Seizure frequency, Absence ([1]; Patient 1, 24 weeks, CBD 15.0 mg/kg/day): 1.6
Seizure frequency, Absence ([1]; Patient 1, 36 weeks, CBD 10.0 mg/kg/day): 0
Seizure frequency, Absence ([1]; Patient 1, 48 weeks, CBD 10.0 mg/kg/day): 0
Seizure frequency, Absence ([1]; Patient 1, 60 weeks, CBD 15.0 mg/kg/day): 0
Seizure frequency, Absence ([1]; Patient 1, 84 weeks, CBD 15.0 mg/kg/day): 0
seizure freedom from absence seizures ([1]; Patient 1, after 36 weeks of treatment): completely seizure free from absence seizures
reduction in absence seizures over the treatment period ([1]; Patient 1, treated for 144 weeks, relative to baseline): 100%
effect on frequency of absence seizures (in words) ([1]; patients with encephalocele): effective in reducing the frequency; also recorded: significant reduction
Seizure frequency, Focal with impairment ([2]; Patient 1, 4 weeks, CBD 25.0 mg/kg/day, baseline 92.5): 104.0
Seizure frequency, Focal with impairment ([2]; Patient 1, 8 weeks, CBD 30.0 mg/kg/day, baseline 92.5): 92.8
Seizure frequency, Focal with impairment ([2]; Patient 1, 12 weeks, CBD 25.0 mg/kg/day, baseline 92.5): 98.0
Seizure frequency, Focal with impairment ([2]; Patient 1, 24 weeks, CBD 15.0 mg/kg/day, baseline 92.5): 93.1
Seizure frequency, Focal with impairment ([2]; Patient 1, 60 weeks, CBD 15.0 mg/kg/day, baseline 92.5): 95.0
Seizure frequency, Focal with impairment ([2]; Patient 2, 2 weeks, CBD 10.0 mg/kg/day, baseline 6.0): 10.0
Seizure frequency, Focal with impairment ([2]; Patient 2, 4 weeks, CBD 20.0 mg/kg/day, baseline 6.0): 6.8
Seizure frequency, Focal with impairment ([2]; Patient 2, 8 weeks, CBD 25.0 mg/kg/day, baseline 6.0): 13.5
Seizure frequency, Focal with impairment ([2]; Patient 2, 12 weeks, CBD 25.0 mg/kg/day, baseline 6.0): 25.1
Seizure frequency, Focal with impairment ([2]; Patient 2, 16 weeks, CBD 25.0 mg/kg/day, baseline 6.0): 14.6
Seizure frequency, Focal with impairment ([2]; Patient 2, 24 weeks, CBD 25.0 mg/kg/day, baseline 6.0): 12.9
Seizure frequency, Focal with impairment ([2]; Patient 2, 48 weeks, CBD 46.0 mg/kg/day, baseline 6.0): 14.5
Seizure frequency, Focal with impairment ([2]; Patient 2, 60 weeks, CBD 24.0 mg/kg/day, baseline 6.0): 18.1
Seizure frequency, Focal with impairment ([2]; Patient 2, 72 weeks, CBD 25.0 mg/kg/day, baseline 6.0): 13.4
Seizure frequency, Focal with impairment ([2]; Patient 2, 84 weeks, CBD 25.0 mg/kg/day, baseline 6.0): 9.8
Seizure frequency, Focal with impairment ([2]; Patient 2, 96 weeks, CBD 25.0 mg/kg/day, baseline 6.0): 22.9
Seizure frequency, Focal with impairment ([2]; Patient 2, 108 weeks, CBD 20.0 mg/kg/day, baseline 6.0): 9.4
Seizure frequency, Focal with impairment ([2]; Patient 2, 120 weeks, CBD 20.0 mg/kg/day, baseline 6.0): 11.3
Seizure frequency, Focal with impairment ([2]; Patient 2, 144 weeks, CBD 22.0 mg/kg/day, baseline 6.0): 4.8
reduction in focal seizures with impairment over the treatment period ([2]; Patient 2, treated for 144 weeks, relative to baseline): 20%
effect on frequency of focal seizures with impairment (in words) ([2]; patients with encephalocele): effective in reducing the frequency; also recorded: significant reduction
Seizure frequency, Focal with secondary generalisation ([3]; 2 weeks, CBD 10.0 mg/kg/day): 90.0
Seizure frequency, Focal with secondary generalisation ([3]; 4 weeks, CBD 20.0 mg/kg/day): 28.8
Seizure frequency, Focal with secondary generalisation ([3]; 8 weeks, CBD 25.0 mg/kg/day): 90.2
Seizure frequency, Focal with secondary generalisation ([3]; 12 weeks, CBD 25.0 mg/kg/day): 197.9
Seizure frequency, Focal with secondary generalisation ([3]; 16 weeks, CBD 25.0 mg/kg/day): 212.8
Seizure frequency, Focal with secondary generalisation ([3]; 24 weeks, CBD 25.0 mg/kg/day): 145.6
Seizure frequency, Focal with secondary generalisation ([3]; 48 weeks, CBD 46.0 mg/kg/day): 143.1
Seizure frequency, Focal with secondary generalisation ([3]; 60 weeks, CBD 24.0 mg/kg/day): 141.0
Seizure frequency, Focal with secondary generalisation ([3]; 72 weeks, CBD 25.0 mg/kg/day): 148.6
Seizure frequency, Focal with secondary generalisation ([3]; 84 weeks, CBD 25.0 mg/kg/day): 143.1
Seizure frequency, Focal with secondary generalisation ([3]; 96 weeks, CBD 25.0 mg/kg/day): 117.8
Seizure frequency, Focal with secondary generalisation ([3]; 108 weeks, CBD 20.0 mg/kg/day): 119.1
Seizure frequency, Focal with secondary generalisation ([3]; 120 weeks, CBD 20.0 mg/kg/day): 146.6
Seizure frequency, Focal with secondary generalisation ([3]; 144 weeks, CBD 22.0 mg/kg/day): 91.1
effect on number of seizures associated with encephalocele (in words) [4]: significantly reduce the number of seizures
reductions in seizures over period of treatment ([4]; absence and focal seizures with impairment, relative to baseline): 20-100%

From US20230372367A1 (GW Research Limited, priority 2020, published 2023)
